Our source for the TGI and GI50 values is PubChem BioAssay (NCI).

Values joined by “and” are separate entries in the source; they are usually repeats but may differ in a detail not shown here. Equal entries are not always repeated.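 Following 48 hours of exposure in 96-well plates, responses at five concentrations were used to interpolate endpoints linearly. GI50 = concentration required for 50% inhibition of growth. Definition used: TGI = concentration required for complete inhibition of growth.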

Test systems include ACHN renal; TK-10 renal; HOP-92 NSCLC; K-562 leukemia; HL-60(TB) leukemia; SNB-19 CNS; SF-295 CNS; SF-539 CNS; PC-3 prostate; BT-549 breast.
Test in all cases: NCI tumour cell line growth inhibition, 48 h

As for `COC(=O)C1CCC(=NC2c3ccccc3-c3ccccc32)N1` (stereo unspecified), the TGI in the assay with ACHN renal was above 100 µM; in the assay with TK-10 renal, above 100 µM; with HOP-92 NSCLC, 76.6 µM; with K-562 leukemia, above 100 µM; in the assay on HL-60(TB) leukemia it was above 100 µM; with SNB-19 CNS it was above 100 µM. For the same molecule, in the assay on SF-295 CNS, the TGI was above 100 µM.
Turning to `COC(=O)C(=O)C(C(=O)C(=O)Nc1ccccc1C(N)=O)c1nc2ccc(C(=O)c3ccccc3)cc2[nH]c1=O` (stereo unspecified), the TGI in the assay with ACHN renal, with TK-10 renal, in the assay with SF-539 CNS, in the assay on K-562 leukemia, in the assay with SNB-19 CNS and with SF-295 CNS was above 100 µM throughout.
`C/C(=N\NC(=S)N1CCC(C2CCN(C(=S)N/N=C(\C)c3ccccn3)CC2)CC1)c1ccccn1`: the TGI in the assay on ACHN renal, in the assay on TK-10 renal, in the assay on HOP-92 NSCLC, in the assay on SF-539 CNS, with K-562 leukemia and with HL-60(TB) leukemia was above 100 µM in each case. Also, the TGI in the assay on SNB-19 CNS and with SF-295 CNS was above 100 µM each time.
For `Clc1ccccc1C1=NN(c2ccccc2)C2c3cc(Br)ccc3OCC12` (stereo unspecified), the TGI with ACHN renal, in the assay with TK-10 renal, with HOP-92 NSCLC, with SF-539 CNS, in the assay on K-562 leukemia and in the assay with HL-60(TB) leukemia was above 100 µM each time. Besides, the TGI in the assay with SNB-19 CNS and in the assay on SF-295 CNS was above 100 µM throughout.
`CC[C@@]1(O)C(=O)OCc2c1cc1n(c2=O)Cc2cc3c(NC(C)=O)c(O)ccc3nc2-1`: the GI50 was 0.389 µM in the assay on ACHN renal; above 71.4 µM in the assay on TK-10 renal; 7.76 µM with HOP-92 NSCLC; 0.388 µM in the assay on SF-539 CNS; 3.47 µM with K-562 leukemia; 416 nM in the assay on HL-60(TB) leukemia. Moreover, the GI50 in the assay on SNB-19 CNS was 0.917 µM; in the assay on SF-295 CNS it was 721 nM. The TGI in the assay with ACHN renal is 2.85 µM; in the assay with TK-10 renal, above 100 µM; in the assay with HOP-92 NSCLC, 51.9 µM; in the assay on SF-539 CNS, 1.96 µM; in the assay with K-562 leukemia it was above 70.2 µM; in the assay on HL-60(TB) leukemia, 5.05 µM. The TGI in the assay on SNB-19 CNS was above 56.6 µM; in the assay with SF-295 CNS it was above 32.1 µM.
On to `O=C(Cc1nc2ccc([N+](=O)[O-])cc2[nH]c1=O)C(=O)Nc1cc(Cl)c(Cl)cc1Cl`, for which the TGI in the assay with PC-3 prostate, in the assay with BT-549 breast, in the assay on ACHN renal, in the assay with TK-10 renal, in the assay with HOP-92 NSCLC and with SF-539 CNS was above 100 µM throughout. Moreover, the TGI with SNB-19 CNS and with SF-295 CNS was above 100 µM throughout.
With `O=C1c2ccccc2C(=O)c2c1ccc1c3ccccc3n(Cc3ccccc3)c21`, the TGI was above 100 µM in the assay with ACHN renal; 94.2 µM with HOP-92 NSCLC; above 100 µM in the assay with SF-539 CNS; above 100 µM with K-562 leukemia; above 100 µM in the assay with HL-60(TB) leukemia; above 100 µM with SF-295 CNS.
Consider `O=C1/C(=C/c2ccccc2)CN(C(=O)OCC(Cl)(Cl)Cl)C/C1=C\c1ccccc1`, for which the TGI in the assay on ACHN renal worked out at 4.68 µM; with TK-10 renal, 17.1 µM; in the assay with SF-539 CNS, 14 µM; in the assay with K-562 leukemia, 5.91 µM; in the assay on HL-60(TB) leukemia, 3.38 µM; with SNB-19 CNS it was 11.9 µM. In the assay on SF-295 CNS, this molecule came in with a TGI of 3.92 µM.
Take `COc1ncnc2c(-c3ccco3)cn(COCc3ccccc3)c12`: the GI50 in the assay on PC-3 prostate was 3.5 µM; in the assay on ACHN renal, above 50 µM; with TK-10 renal, 17.8 µM; in the assay with SF-539 CNS, above 50 µM; in the assay with K-562 leukemia it was above 50 µM; in the assay with HL-60(TB) leukemia, above 50000 nM. In addition, the GI50 in the assay on SNB-19 CNS is above 50 µM; in the assay with SF-295 CNS, above 50000 nM. The TGI in the assay on PC-3 prostate, with ACHN renal, in the assay on TK-10 renal, in the assay on SF-539 CNS, in the assay on K-562 leukemia and in the assay on HL-60(TB) leukemia was above 50 µM in each case. The TGI in the assay on SNB-19 CNS and in the assay on SF-295 CNS was above 50 µM in each case.
Take `O=C1c2cccc3cccc(c23)C(=O)N1CCCN1CCN(CCCN2C(=O)c3cccc4cccc(c34)C2=O)CC1`: the TGI in the assay with ACHN renal, with TK-10 renal, in the assay on HOP-92 NSCLC, in the assay on SF-539 CNS, in the assay with K-562 leukemia and with HL-60(TB) leukemia was above 100 µM in each case. The TGI with SNB-19 CNS and with SF-295 CNS was above 100 µM in each case.
Consider `CCOC(=N)CC(=O)NC(C)c1ccccc1` (stereo unspecified), for which the TGI with ACHN renal, with TK-10 renal, in the assay on SF-539 CNS, in the assay with K-562 leukemia, in the assay on HL-60(TB) leukemia and in the assay with SNB-19 CNS was above 100 µM each time. Also, the TGI in the assay with SF-295 CNS was above 100 µM.
`COc1ccc(-n2nc(C)c3c2N(C)C2(C)C[C@@H]4C3(C)[C@@H]3CC4(C2)N(C)c2c(c(C)nn2-c2ccc(OC)cc2)[C@H]3C)cc1` (stereo partly specified): the GI50 with BT-549 breast was 4.17 µM; in the assay with ACHN renal, 6.13 µM; in the assay with TK-10 renal, 4.77 µM; with SF-539 CNS, 6.49 µM; with SNB-19 CNS, 4.45 µM. The TGI with BT-549 breast is above 100 µM; in the assay with ACHN renal, above 100 µM; in the assay with TK-10 renal, 21.3 µM; with SF-539 CNS, above 100 µM; in the assay on SNB-19 CNS, 86.3 µM.
For `O=C1/C(=C/c2ccccc2)CN(C(=O)Oc2ccc([N+](=O)[O-])cc2)C/C1=C\c1ccccc1`, the GI50 is 4.94 µM in the assay with ACHN renal, 1.79 µM in the assay on K-562 leukemia, 1730 nM with HL-60(TB) leukemia and 2070 nM in the assay on SF-295 CNS. Moreover, the TGI was 5.33 µM in the assay with K-562 leukemia; 3.97 µM and 5.9 µM in the assay on HL-60(TB) leukemia; 7.93 µM and 4.98 µM in the assay on SF-295 CNS.
As to `CCOC(=O)NNC(=O)NC12CC3CC(CC(C3)C1)C2`, the TGI with ACHN renal, with TK-10 renal, in the assay on HOP-92 NSCLC, in the assay with SF-539 CNS, in the assay on K-562 leukemia and in the assay with SNB-19 CNS was above 100 µM each time. The same molecule showed a TGI in the assay on SF-295 CNS above 100 µM.
